Reference: the NIST ThermoML archive (doi:10.1021/je100089s)

Experiment: xn = mol fraction of the nth substance listed
Details: Liquid, Vibrating tube method

OCCO [1,2-ethanediol] + C[S+](C)[O-]
mass density [kg/m3]
Details	308.15 K	323.15 K
101 kPa, x2 = 0	–	1092.12
101 kPa, x2 = 0.00452	–	1092.05
101 kPa, x2 = 0.00721	–	1092.03
101 kPa, x2 = 0.01811	–	1091.95
101 kPa, x2 = 0.03033	–	1091.83
101 kPa, x2 = 0.04027	–	1091.72
101 kPa, x2 = 0.07007	–	1091.39
101 kPa, x2 = 0.1097	–	1090.85
101 kPa, x2 = 0.1408	–	1090.44
101 kPa, x2 = 0.1934	–	1089.61
101 kPa, x2 = 0.3244	–	1087.33
101 kPa, x2 = 0.3764	–	1086.33
101 kPa, x2 = 0.4429	–	1084.93
101 kPa, x2 = 0.4892	–	1083.92
101 kPa, x2 = 0.5654	–	1082.23
101 kPa, x2 = 0.6298	–	1080.61
101 kPa, x2 = 0.6946	–	1079.07
101 kPa, x2 = 0.8142	–	1075.74
101 kPa, x2 = 0.867	–	1074.15
101 kPa, x2 = 0.9266	–	1072.5
101 kPa, x2 = 0.9577	–	1071.55
101 kPa, x2 = 0.9836	–	1070.76
101 kPa, x2 = 0.992	–	1070.5
101 kPa, x2 = 0.9968	–	1070.35
10000 kPa, x2 = 0.1097	–	1095.4
10000 kPa, x2 = 0.1408	–	1095
10000 kPa, x2 = 0.1934	–	1094.25
10000 kPa, x2 = 0.234	–	1093.65
10000 kPa, x2 = 0.3244	–	1092.16
10000 kPa, x2 = 0.3764	–	1091.26
10000 kPa, x2 = 0.4429	–	1090
10000 kPa, x2 = 0.5654	–	1087.55
10000 kPa, x2 = 0.6946	–	1084.73
10000 kPa, x2 = 0.8142	–	1081.78
10000 kPa, x2 = 0.9266	–	1078.85
10000 kPa, x2 = 0.9836	–	1077.32
25000 kPa, x2 = 0.0701	–	1102.37
25000 kPa, x2 = 0.1097	–	1102.05
25000 kPa, x2 = 0.1408	–	1101.79
25000 kPa, x2 = 0.1934	–	1101.25
25000 kPa, x2 = 0.234	–	1100.8
25000 kPa, x2 = 0.3244	–	1099.69
25000 kPa, x2 = 0.3764	–	1098.98
25000 kPa, x2 = 0.4429	–	1097.94
25000 kPa, x2 = 0.4892	–	1097.2
25000 kPa, x2 = 0.6946	–	1093.6
25000 kPa, x2 = 0.8142	–	1091.06
25000 kPa, x2 = 0.9836	–	1087.21
50000 kPa, x2 = 0	–	1112.75
50000 kPa, x2 = 0.0181	–	1112.77
50000 kPa, x2 = 0.0403	–	1112.8
50000 kPa, x2 = 0.0701	–	1112.82
50000 kPa, x2 = 0.1097	–	1112.71
50000 kPa, x2 = 0.1408	–	1112.64
50000 kPa, x2 = 0.1934	–	1112.4
50000 kPa, x2 = 0.234	–	1112.23
50000 kPa, x2 = 0.3244	–	1111.61
50000 kPa, x2 = 0.3764	–	1111.18
50000 kPa, x2 = 0.4429	–	1110.52
50000 kPa, x2 = 0.5654	–	1109.22
50000 kPa, x2 = 0.6946	–	1107.58
50000 kPa, x2 = 0.8142	–	1105.68
50000 kPa, x2 = 0.9266	–	1103.78
75000 kPa, x2 = 0	–	1122.55
75000 kPa, x2 = 0.0181	–	1122.62
75000 kPa, x2 = 0.0403	–	1122.72
75000 kPa, x2 = 0.0701	–	1122.84
75000 kPa, x2 = 0.1097	–	1122.87
75000 kPa, x2 = 0.1408	–	1122.91
75000 kPa, x2 = 0.1934	–	1122.85
75000 kPa, x2 = 0.234	–	1122.77
75000 kPa, x2 = 0.3244	–	1122.44
75000 kPa, x2 = 0.3764	–	1122.18
75000 kPa, x2 = 0.4429	–	1121.69
75000 kPa, x2 = 0.4892	–	1121.34
75000 kPa, x2 = 0.5654	–	1120.75
75000 kPa, x2 = 0.6946	–	1119.48
75000 kPa, x2 = 0.8142	–	1117.9
75000 kPa, x2 = 0.9266	–	1116.27
75000 kPa, x2 = 0.9836	–	1115.35
100000 kPa, x2 = 0	–	1130.66
100000 kPa, x2 = 0.0181	–	1130.77
100000 kPa, x2 = 0.0403	1139.87	1130.87
100000 kPa, x2 = 0.0701	1140.08	1130.96
100000 kPa, x2 = 0.1097	1140.24	1131
100000 kPa, x2 = 0.1408	1140.54	1131.06
100000 kPa, x2 = 0.1934	1140.74	1130.99
100000 kPa, x2 = 0.234	1140.88	1130.94
100000 kPa, x2 = 0.3244	1140.94	1130.63
100000 kPa, x2 = 0.3764	1140.97	1130.38
100000 kPa, x2 = 0.4429	1140.85	1129.92
100000 kPa, x2 = 0.4892	1140.71	1129.57
100000 kPa, x2 = 0.5654	1140.47	1128.99
100000 kPa, x2 = 0.6946	1139.72	1127.72
100000 kPa, x2 = 0.8142	1138.6	1126.09
100000 kPa, x2 = 0.9266	1137.41	1124.43
100000 kPa, x2 = 0.9836	1136.73	1123.49
